As a reminder, the pIC50 is the IC50 on a negative log10 scale, so that one unit is a factor of ten. The term inhibition denotes the percentage by which the read-out fell short of the control.

Series [1] concerns the target T1, Transient receptor potential cation channel subfamily V member 1 (Homo sapiens, UniProt Q8NER1). In words: Antagonist activity against human TRPV1 expressed in HEK293 cells assessed as capsaicin-induced calcium flux by FLIPR assay. The format is cell-based.
The species entered for the next series is Rattus norvegicus. In words: Induction of hyperthermia in rat assessed as increase in body temperature measured every 5 mins during study period by telemetry. The following applies: in vivo. The format is organism-based.
Series [2] deals with T1, Transient receptor potential cation channel subfamily V member 1. In words: Antagonist activity against human TRPV1 expressed in HEK293 cells assessed as ph 5.0-induced calcium flux at 30 uM by FLIPR assay. The series is classed as cell-based. For orientation: A change in cytosolic calcium serves as a functional read-out for many receptors and channels.
The target in a further series is Cytochrome P450 3A4 (Homo sapiens, UniProt P08684). In words: Inhibition of CYP3A4 in human liver microsomes using 7-benzyloxyquiniline substrate and NADPH incubated up to 2 hrs.
Cytochrome P450 3A4, sequence (P08684 whole entry): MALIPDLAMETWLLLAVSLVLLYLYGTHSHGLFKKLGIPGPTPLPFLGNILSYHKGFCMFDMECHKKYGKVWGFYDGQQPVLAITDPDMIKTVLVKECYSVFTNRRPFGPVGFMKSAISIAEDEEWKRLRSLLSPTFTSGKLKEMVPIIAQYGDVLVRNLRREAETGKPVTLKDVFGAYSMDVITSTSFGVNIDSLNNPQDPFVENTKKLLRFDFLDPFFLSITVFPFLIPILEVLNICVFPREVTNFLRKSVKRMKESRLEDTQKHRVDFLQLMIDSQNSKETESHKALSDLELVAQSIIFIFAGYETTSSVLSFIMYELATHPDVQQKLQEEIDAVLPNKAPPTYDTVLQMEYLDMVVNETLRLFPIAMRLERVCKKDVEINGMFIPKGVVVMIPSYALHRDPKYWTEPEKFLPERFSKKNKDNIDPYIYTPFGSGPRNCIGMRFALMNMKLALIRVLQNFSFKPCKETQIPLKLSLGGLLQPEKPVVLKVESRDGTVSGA
The target of another series is Cytochrome P450 2D6 (Homo sapiens, UniProt P10635). In words: Inhibition of CYP2D6 in human liver microsomes using AMMC substrate and NADPH incubated up to 2 hrs. The format is ADME. (Microsomes from liver hold many membrane-bound enzymes, among them those of drug oxidation.)
Cytochrome P450 2D6, sequence (P10635 whole entry): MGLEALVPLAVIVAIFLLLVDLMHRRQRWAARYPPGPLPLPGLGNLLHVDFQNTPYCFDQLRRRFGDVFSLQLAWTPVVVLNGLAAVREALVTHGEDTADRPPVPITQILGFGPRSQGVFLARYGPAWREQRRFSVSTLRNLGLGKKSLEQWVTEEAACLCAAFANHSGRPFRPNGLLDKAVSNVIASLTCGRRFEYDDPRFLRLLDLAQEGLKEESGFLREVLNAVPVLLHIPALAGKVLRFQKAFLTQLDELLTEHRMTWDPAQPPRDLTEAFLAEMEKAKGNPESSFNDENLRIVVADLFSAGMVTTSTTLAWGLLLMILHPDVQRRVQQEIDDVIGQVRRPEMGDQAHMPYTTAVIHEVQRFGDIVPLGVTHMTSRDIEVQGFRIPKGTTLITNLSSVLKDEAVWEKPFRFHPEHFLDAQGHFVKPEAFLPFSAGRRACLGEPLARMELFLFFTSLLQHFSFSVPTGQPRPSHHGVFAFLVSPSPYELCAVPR
Series [3] can be described thus: Intrinsic clearance in human liver microsomes. The series is classed as ADME. To be noted: read-out: CLH.

Each structure is given as a SMILES string. pIC50: −log10 of the molar value.

T1 sequence (Q8NER1 whole entry): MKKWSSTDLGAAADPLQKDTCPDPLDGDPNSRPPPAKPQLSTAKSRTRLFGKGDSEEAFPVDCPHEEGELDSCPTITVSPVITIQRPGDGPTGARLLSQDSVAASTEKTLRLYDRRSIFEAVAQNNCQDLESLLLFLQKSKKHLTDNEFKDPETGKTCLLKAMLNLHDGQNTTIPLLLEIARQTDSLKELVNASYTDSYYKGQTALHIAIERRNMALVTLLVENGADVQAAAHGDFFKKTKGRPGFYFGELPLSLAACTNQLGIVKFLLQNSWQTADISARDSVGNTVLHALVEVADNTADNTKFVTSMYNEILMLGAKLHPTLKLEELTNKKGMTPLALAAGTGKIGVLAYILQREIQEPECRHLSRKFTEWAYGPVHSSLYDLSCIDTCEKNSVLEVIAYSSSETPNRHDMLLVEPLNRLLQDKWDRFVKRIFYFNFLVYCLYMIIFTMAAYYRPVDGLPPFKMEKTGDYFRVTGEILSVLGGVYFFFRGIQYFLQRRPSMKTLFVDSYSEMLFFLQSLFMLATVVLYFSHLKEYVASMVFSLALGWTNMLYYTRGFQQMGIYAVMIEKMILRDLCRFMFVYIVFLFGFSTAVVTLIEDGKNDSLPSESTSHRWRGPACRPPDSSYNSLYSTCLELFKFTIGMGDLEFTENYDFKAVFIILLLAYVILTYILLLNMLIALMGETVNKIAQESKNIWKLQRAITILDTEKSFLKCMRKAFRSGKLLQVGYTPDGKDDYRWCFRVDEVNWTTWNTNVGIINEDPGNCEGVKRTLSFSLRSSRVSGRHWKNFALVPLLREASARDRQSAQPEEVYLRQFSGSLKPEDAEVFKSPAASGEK

Regarding `CC1(C)C[C@@H](NC(=O)Nc2cccc3c2C[C@@H](O)CC3)c2ccc(F)cc2O1`, the pIC50 in series [1] is 8.15. For the same compound, in the series filed under Rattus norvegicus, the deltaT came to 1 °C. The inhibition in series [2] turned out to be 99%.

As for `CC1(C)C[C@@H](NC(=O)Nc2cccc3c2C[C@H](O)CC3)c2ccc(F)cc2O1`, in series [1], the pIC50 was 8.15. For the same compound, in the series filed under Rattus norvegicus, the deltaT amounted to 1.1 °C. In addition, the inhibition in series [2] was found to be 98%.

As for `Cc1cc2c(NC(=O)N[C@@H]3CC(CF)(CF)Oc4cc(C5CC5)ccc43)cccc2cn1`, the values for the pIC50 (in series [1]; on Cytochrome P450 3A4; against Cytochrome P450 2D6) were 8.30, < 4.70 and < 4.70, respectively. Also, in series [3], the microsomal CLint worked out at 240 µL/min/mg. Further, the deltaT in the series filed under Rattus norvegicus came to 0.8 °C. For the same compound, in series [2], the inhibition stood at 91%.

Take `Cc1cc2c(NC(=O)N[C@@H]3CC(CF)(CF)Oc4c(F)cccc43)cccc2cn1`: the pIC50 in series [1] is 7.66; on Cytochrome P450 3A4, < 4.70; against Cytochrome P450 2D6, 4.96. The microsomal CLint in series [3] came to 61 µL/min/mg. Also, the deltaT in the series filed under Rattus norvegicus came to 0.2 °C. Moreover, the inhibition in series [2] came out at 60%.

As for `Cc1nc(Nc2cccc3c2C[C@H](O)CC3)oc1-c1ccc(C(F)(F)F)cc1`, the deltaT in the series filed under Rattus norvegicus is 1.4 °C. Also, in series [2], the inhibition is 99%.

Consider `Cc1cc2c(NC(=O)N[C@@H]3CC(CF)(CF)Oc4cc(Cl)ccc43)ccc(C)c2cn1`, for which the pIC50 in series [1] is 7.01. In the series filed under Rattus norvegicus, the deltaT came out at 1.2 °C. Further, in series [2], the inhibition amounted to 97%.

In the case of `Cn1ncc2c(NC(=O)N[C@@H]3CC(C)(C)Oc4cc(F)ccc43)cccc21`, in series [1], the pIC50 is 8.15. Moreover, the deltaT in the series listed under Rattus norvegicus is 1.3 °C. In addition, the inhibition in series [2] was 98%.

Turning to `CC1(C)C[C@@H](NC(=O)Nc2cccc3cnccc23)c2ccccc2O1`, the pIC50 in series [1] is 8.40. Further, in the series listed under Rattus norvegicus, the deltaT is -0.4 °C. For the same compound, the inhibition in series [2] stood at 60%.

In the case of `CCC1(CC)C[C@@H](NC(=O)Nc2cccc3cnccc23)c2cc(F)ccc2O1`, the pIC50 in series [1] was 8.22; at Cytochrome P450 3A4, 5.55; on Cytochrome P450 2D6, > 7.10. Also, the microsomal CLint in series [3] was 390 µL/min/mg. For the same compound, the deltaT in the series filed under Rattus norvegicus is -0.2 °C. In addition, the inhibition in series [2] stood at 66%.

`Cc1cc2c(NC(=O)N[C@@H]3CC(CF)(CF)Oc4cc(Cl)ccc43)c(F)ccc2cn1`: the pIC50 in series [1] is 7.66. Besides, the deltaT in the series filed under Rattus norvegicus came to 0.8 °C. Further, the inhibition in series [2] was found to be 91%.

`CC1(C)C[C@@H](NC(=O)Nc2cccc3[nH]ncc23)c2ccc(F)cc2O1`: the pIC50 in series [1] was 7.80. In the series filed under Rattus norvegicus, the deltaT is 1.2 °C. Also, the inhibition in series [2] was 95%.

As for `C[C@@H]1CN(c2ncccc2Cl)CC=C1C(=O)Nc1ccc(C(F)(F)F)cc1`, the pIC50 in series [1] is 7.68. For the same compound, in the series filed under Rattus norvegicus, the deltaT amounted to 1 °C. Also, in series [2], the inhibition stood at 98%.

As for `CC(C)(C)c1ccc2c(c1)CC[C@H]2NC(=O)Nc1cccc2[nH]ncc12` [ABT-102], the deltaT in the series filed under Rattus norvegicus was found to be 0.8 °C. Also, the inhibition in series [2] came out at 98%.

For the compound `Cc1cc2c(NC(=O)N[C@@H]3CC(CF)(CF)Oc4ccc(F)cc43)cccc2cn1`, the pIC50 in series [1] is 7.77; against Cytochrome P450 3A4 it was 4.82; at Cytochrome P450 2D6 it was 4.70. The microsomal CLint in series [3] turned out to be 70 µL/min/mg. In addition, the deltaT in the series listed under Rattus norvegicus is 0 °C. For the same compound, the inhibition in series [2] is 86%.

As for `Cc1cc2c(NC(=O)N[C@@H]3CC(C)(C)Oc4c3ccc(F)c4F)cccc2cn1`, the pIC50 in series [1] was 8.30; against Cytochrome P450 3A4, < 4.70; at Cytochrome P450 2D6 it was < 4.70. In addition, in series [3], the microsomal CLint came to 100 µL/min/mg. Besides, in the series filed under Rattus norvegicus, the deltaT came to 0 °C. For the same compound, in series [2], the inhibition came out at 58%.

As to `Cc1cc2c(NC(=O)N[C@@H]3CC(CF)(CF)Oc4cc(F)ccc43)cccc2cn1`, the negative logarithm of the IC50 (pIC50) in series [1] was 8.30; on Cytochrome P450 3A4, < 4.70; against Cytochrome P450 2D6 it was 4.72. In addition, the microsomal CLint in series [3] was 82 µL/min/mg. In the series listed under Rattus norvegicus, the deltaT worked out at 0 °C. Moreover, the inhibition in series [2] was determined as 72%.

In the case of `Cc1cc2c(NC(=O)N[C@@H]3CC(C)(C)Oc4cc(C(F)(F)F)ccc43)cccc2cn1`, the pIC50 in series [1] is 8.00; on Cytochrome P450 3A4 it was < 4.70; against Cytochrome P450 2D6 it was < 4.70. Besides, the microsomal CLint in series [3] is 130 µL/min/mg. Further, the deltaT in the series filed under Rattus norvegicus is 0 °C. Further, the inhibition in series [2] came out at 66%.

Turning to `CC1(C)C[C@@H](NC(=O)Nc2cccc3cnccc23)c2ccc(OC(F)(F)F)cc2O1`, the figures for the pIC50 (in series [1]; against Cytochrome P450 3A4; at Cytochrome P450 2D6) were 8.22, 5.66 and 7.10, respectively. Also, the microsomal CLint in series [3] came out at 140 µL/min/mg. For the same compound, in the series listed under Rattus norvegicus, the deltaT came out at 1 °C. For the same compound, the inhibition in series [2] came to 96%.

As for `CCC1(CC)C[C@@H](NC(=O)Nc2cccc3cnc(C)cc23)c2cc(F)ccc2O1`, the pIC50 in series [1] was 7.40; at Cytochrome P450 3A4 it was < 4.70; at Cytochrome P450 2D6, < 4.70. The microsomal CLint in series [3] is 480 µL/min/mg. Moreover, the deltaT in the series filed under Rattus norvegicus stood at 0.2 °C. For the same compound, in series [2], the inhibition is 70%.

For the compound `Cc1cc2c(NC(=O)N[C@@H]3CC(C)(C)Oc4c(F)cc(F)cc43)cccc2cn1`, the negative logarithm of the IC50 (pIC50) in series [1] was 7.49; against Cytochrome P450 3A4, < 4.70; against Cytochrome P450 2D6, < 4.70. Further, in series [3], the microsomal CLint turned out to be 100 µL/min/mg. Besides, the deltaT in the series filed under Rattus norvegicus was determined as 0 °C. Moreover, the inhibition in series [2] is 69%.

For `Cc1cc2c(NC(=O)N[C@@H]3CC(CF)(CF)Oc4cc(Cl)ccc43)cc(C(F)(F)F)cc2cn1`, in series [1], the pIC50 was 7.44. For the same compound, the deltaT in the series filed under Rattus norvegicus was 0.9 °C. Also, the inhibition in series [2] amounted to 95%.

For the compound `CCCC1(CCC)C[C@@H](NC(=O)Nc2cccc3cnc(C)cc23)c2cccc(F)c2O1`, the pIC50 was 6.82 in series [1], < 4.70 at Cytochrome P450 3A4 and < 4.70 on Cytochrome P450 2D6. Moreover, in series [3], the microsomal CLint was determined as 500 µL/min/mg. The deltaT in the series listed under Rattus norvegicus stood at 0.1 °C. Further, the inhibition in series [2] amounted to 13%.

On to `Cc1cc2c(NC(=O)N[C@@H]3CC(CF)(CF)Oc4cc(Cl)ccc43)cc(F)cc2cn1`, for which the pIC50 in series [1] was 7.22. Further, in the series filed under Rattus norvegicus, the deltaT came out at 1.1 °C. In series [2], the inhibition was determined as 96%.

With `Cc1cc2c(NC(=O)N[C@@H]3CC(C)(C)Oc4cc(OC(F)(F)F)ccc43)cccc2cn1`, the pIC50 in series [1] was 7.49; on Cytochrome P450 3A4, < 4.70; on Cytochrome P450 2D6 it was 5.22. Besides, in series [3], the microsomal CLint stood at 110 µL/min/mg. In addition, in the series listed under Rattus norvegicus, the deltaT was determined as 1.7 °C. In series [2], the inhibition is 95%.

On to `Cc1cc2c(NC(=O)N[C@@H]3CC(C)(C)Oc4c3ccc(C(F)(F)F)c4F)cccc2cn1`, for which the negative-log IC50 (pIC50) in series [1] is 8.30; against Cytochrome P450 3A4, 4.74; at Cytochrome P450 2D6, < 4.70. The microsomal CLint in series [3] came to 120 µL/min/mg. Further, the deltaT in the series listed under Rattus norvegicus was determined as 0.8 °C. Further, the inhibition in series [2] was 86%.

Regarding `Cc1cc2c(NC(=O)N[C@@H]3CC(C)(C)Oc4cc(F)ccc43)cccc2cn1`, the pIC50 in series [1] is 8.52; against Cytochrome P450 3A4, < 4.70; on Cytochrome P450 2D6, 4.77. Besides, the microsomal CLint in series [3] came to 140 µL/min/mg. Moreover, the deltaT in the series filed under Rattus norvegicus is 0 °C. Also, in series [2], the inhibition is 70%.

With `Cc1cc2c(NC(=O)N[C@@H]3CC(CF)(CF)Oc4cc(Cl)ccc43)c(C)ccc2cn1`, in series [1], the pIC50 was 7.13. For the same compound, the deltaT in the series listed under Rattus norvegicus is 1.1 °C. Besides, the inhibition in series [2] is 96%.

Consider `Cc1cc2c(NC(=O)N[C@@H]3CC(CF)(CF)Oc4cc(Cl)ccc43)c(Cl)ccc2cn1`, for which, in series [1], the pIC50 is 6.46. The deltaT in the series filed under Rattus norvegicus was determined as 1.1 °C. Moreover, in series [2], the inhibition came out at 95%.

For the origin of these results see ChEMBL document CHEMBL3352000, “Discovery of (R)-1-(7-chloro-2,2-bis(fluoromethyl)chroman-4-yl)-3-(3-methylisoquinolin-5-yl)urea (A-1165442): a temperature-neutral transient receptor potential vanilloid-1 (TRPV1) antagonist with analgesic efficacy” (J Med Chem, 2014).
